According to BindingDB's records for PubMed 8968358 (University of California, 1996):
pKi: −log10 of the molar value.

Target: Muscarinic acetylcholine receptor M3 (Rattus norvegicus, UniProt P08483)
Sequence (P08483 whole entry): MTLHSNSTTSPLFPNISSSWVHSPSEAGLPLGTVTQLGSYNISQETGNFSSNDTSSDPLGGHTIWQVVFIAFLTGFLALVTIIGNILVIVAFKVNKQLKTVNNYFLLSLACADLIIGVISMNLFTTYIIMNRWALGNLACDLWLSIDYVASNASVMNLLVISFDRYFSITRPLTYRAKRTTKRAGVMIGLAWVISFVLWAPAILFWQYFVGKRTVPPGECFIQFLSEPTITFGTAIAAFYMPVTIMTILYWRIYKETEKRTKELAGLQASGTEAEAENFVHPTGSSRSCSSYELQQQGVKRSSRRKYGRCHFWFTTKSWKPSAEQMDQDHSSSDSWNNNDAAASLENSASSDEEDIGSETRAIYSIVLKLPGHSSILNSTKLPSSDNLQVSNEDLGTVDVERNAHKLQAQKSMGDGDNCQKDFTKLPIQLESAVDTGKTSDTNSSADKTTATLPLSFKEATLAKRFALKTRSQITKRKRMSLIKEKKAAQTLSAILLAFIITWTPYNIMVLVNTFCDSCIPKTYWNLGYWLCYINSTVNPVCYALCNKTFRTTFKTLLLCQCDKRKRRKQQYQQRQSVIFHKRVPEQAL

Question: With `C[N+](C)(C)CC#CCN1CCCC1=O` as the compound, how does the pKi read?
Answer: The pKi was 5.06.
